Test results reported in paper PMC11369183, “PARP inhibition with rucaparib alone followed by combination with atezolizumab: Phase Ib COUPLET clinical study in advanced gynaecological and triple-negative breast cancers” (British Journal of Cancer, 2024).
Like-named read-outs stand apart in the source and are kept apart here.

Assays:
[1] = test system: ovarian cancer, patients with measurable disease; parameters: method as in PMID 32073956; settings: olaparib alone; cited from earlier work
cGAS-STING pathway = test: RNA sequencing signature in longitudinal tumour biopsies: cGAS-STING; type: in vivo, human; settings: during rucaparib run-in, in four of five responders
Source text: (§1) All patients (Parts 1 and 2) were required to have sufficient archival formalin-fixed paraffin-embedded (FFPE) tumour tissue available for planned analyses. […] A further biopsy at disease progression was optional. Tumour and biomarker characteristics are described according to central review result. However, patients could be enrolled or assigned to a cohort based on local test results, to avoid delaying treatment initiation. […] Patients were ineligible if they had previously received treatment with a PARPi, CD137 agonist, or other ICI (including but not limited to anti-PD-1, anti-PD-L1, and anti-CTLA-4 therapeutic antibodies). […] RNA sequencing reads were first aligned to ribosomal RNA sequences to remove ribosomal reads. The remaining reads were aligned to the human reference genome (National Center for Biotechnology Information Build 38) using Genomic Short-read Nucleotide Alignment Program (GSNAP) version 2013-11-01. To quantify gene expression levels, the number of reads mapped to the exons of each RefSeq gene was calculated using the functionality provided by the R/Bioconductor package GenomicAlignments. For each cohort, raw counts for genes were trimmed mean of M-values (TMM)-normalised based on size factors as calculated with CalcNormFactors in the edgeR package. […]

Apoptosis signature = test: RNA sequencing signature in longitudinal tumour biopsies: apoptosis; type: in vivo, human; settings: during run-in, responding patients
Source text: as §1

[2] = test system: DNA damage repair signature; test: RNA sequencing signature in longitudinal tumour biopsies: DDR; type: in vivo, human; settings: after the rucaparib run-in
Source text: as §1

clinical = test: clinical; parameters: species or system human; settings: in vivo; for Cmax: female
Source text: (§2) No formal statistical analyses were planned.

[3] = test system: CD8 T-cell activity signature; test: RNA sequencing signature in longitudinal tumour biopsies: CD8 T-cell activity; type: in vivo, human; settings: during rucaparib run-in, in four of five responders
Source text: as §1

[4] = Source text: The primary objective was to evaluate the safety and tolerability of the combination by identifying dose-limiting toxicities (DLTs; Supplementary Table 1) that determined the maximum tolerated dose and identifying a potential recommended dose and schedule for subsequent assessments. Safety endpoints included the incidence, nature, and severity of adverse events (AEs) and DLTs according to National Cancer Institute Common Terminology Criteria for Adverse Events version 4.03. Secondary efficacy endpoints comprised objective response rate (ORR) according to Response Evaluation Criteria in Solid Tumours (RECIST) version 1.1, duration of response, progression-free survival (PFS) according to RECIST version 1.1, and overall survival (OS). The PK objective was to determine the PK of rucaparib and atezolizumab combination therapy in plasma and serum, with pre-specified parameters including steady-state maximum concentration observed (Cmax), time to maximum concentration (Tmax), and area under the concentration–time curve (AUC) for rucaparib and serum concentration of atezolizumab in Part 1, and minimum concentration during the dosing interval or trough concentration (Cmin) of rucaparib and serum concentration of atezolizumab in Part 2. The incidence of antidrug antibodies (ADAs) to atezolizumab was an additional secondary endpoint. The study also included pre-specified exploratory biomarker objectives: to evaluate predictive and pharmacodynamic biomarkers of response or resistance to combined rucaparib and atezolizumab therapy in tumour biopsies and blood; and to evaluate additional biomarkers of HRD and novel biomarkers and correlate them with response and/or clinical outcome, including efficacy and safety. No formal statistical analyses were planned.
In Part 1 (dose-finding phase), patients with histologically confirmed ovarian or endometrial cancer who had received at least one prior line of therapy for metastatic disease received varying doses of oral rucaparib (400 mg twice daily in the first cohort, 600 mg twice daily in the second cohort, decreasing to 500 mg in the third cohort if necessary) in combination with a fixed dose of intravenous atezolizumab 1200 mg on Day 1. Cycles were repeated every 21 days and continued until unacceptable toxicity or disease progression if, in the investigator’s opinion, the patient would not derive clinical benefit from continued study treatment. It was planned to enroll ~six to 18 patients in up to three dose cohorts. […] In Part 2 (dose-expansion phase), the recommended Phase II dose was evaluated further for safety, PK, and preliminary activity in two tumour-specific expansion cohorts with an initially targeted enrollment of up to ~50 patients in total. In Cohort 1, eligible patients had platinum-sensitive high-grade serous or grade 3 endometrioid epithelial ovarian, fallopian tube, or primary peritoneal cancer with tumours harbouring a deleterious germline or somatic BRCA mutation (tBRCAmut, Arm A) or a tBRCA-like molecular signature (tBRCA-wild type [wt]/loss of heterozygosity [LOH]high, Arm B). Patients had received one to two prior platinum-containing regimens, with progression >6 months after the last dose of the most recent platinum therapy. In Cohort 2 (Arm C), patients had tBRCAmut or tBRCAwt/LOHhigh TNBC and had received at least one prior line of chemotherapy (without cancer immunotherapy) in the metastatic setting. Part 2 treatment comprised a 21-day run-in period of single-agent rucaparib at the identified recommended rucaparib starting dose (run-in), followed by rucaparib in combination with intravenous atezolizumab 1200 mg on Day 1 (combination). Cycles were repeated every 21 days.

CD274 (PD-L1 gene) = test: RNA sequencing in longitudinal tumour biopsies: CD274; type: in vivo, human; settings: after rucaparib run-in, responders (not in non-responders)
Source text: as §1

[5] = test system: antidrug antibodies (ADAs) to atezolizumab; test: Incidence of antidrug antibodies (ADAs) to atezolizumab; type: in vivo, human; settings: one of 28 patients evaluable for ADA
Source text: as §2

[6] = Atezolizumab serum concentration (sparse PK sampling); type: in vivo
Source text: as §2

[7] = Part 2 TNBC Arm C, n = 5, run-in
[8] = Part 2 ovarian cancer Arms A + B, n = 14, run-in
[9] = Cycle 1 arithmetic mean (CV), sparse PK sampling, Part 2 ovarian cancer Arm B (tBRCAwt/LOHhigh), n = 4

## O=C(c1cc(Cc2n[nH]c(=O)c3ccccc23)ccc1F)N1CCN(C(=O)C2CC2)CC1 [olaparib]
[1]
  ORR: 72%

## CNCc1ccc(-c2[nH]c3cc(F)cc4c3c2CCNC4=O)cc1 [rucaparib]
cGAS-STING pathway
  Increase in cGAS-STING pathway activation: > 100%
Apoptosis signature
  Patients with increased apoptosis signature expression: three of five
[2]; non-responders (by <10%)
  Patients with decreased DDR signature: one of four
[2]; responders
  Patients with decreased DDR signature: four of five
clinical; human, 400 mg
  Cmax: 2270 ng/mL
  Rucaparib AUClast: (n = 2) 15 072 (21.2) h·ng/mL
clinical; human, 600 mg
  Cmax: 3180 ng/mL
  Rucaparib AUClast: (n = 6) 22 082 (41.6) h·ng/mL
clinical; human
  Inter-individual variability in exposure, AUC: 21.2–41.6%
  Inter-individual variability in exposure, Cmax: 27.4–46.8%
  Inter-individual variability in exposure, Cmin: 28.6–88.7%
  Tmax: 1.5 to 6 h
clinical; human, 21 days
  Rucaparib Cmin: (n = 5) 1180 (52.5) ng/mL
clinical
  Dose proportionality of kinetics: dose-proportional kinetics
[3]
  Increase in CD8 + T-cell activity: > 50%
[4]; [7]
  Grade 5 AE: 0 n (%)
[4]; [8]
  Grade 5 AE: 0 n (%)
[4]; human, in vivo
  AE leading to treatment modification/interruption: Rucaparib: 1 (20) n (%)
[4]; human, in vivo, 21 days
  AE leading to treatment discontinuation: 0 n (%)
  AE leading to treatment modification/interruption: 1 (20) n (%)
  AE leading to treatment modification/interruption: Rucaparib: 1 (20) n (%)
  Any grade AE: 5 (100) n (%)
  Grade 3/4 AE: 2 (40) n (%)
  Treatment-related AE: 4 (80) n (%)
CD274 (PD-L1 gene)
  Patients with increased CD274 expression: three of five

## atezolizumab
[5]
  Patients positive for treatment-emergent ADAs: 4%
[4]; Part 1 Cohort 1 (rucaparib 400 mg), n = 3
  AE leading to treatment modification/interruption: Atezolizumab: 1 (33) n (%)
[4]; Part 1 Cohort 2 (rucaparib 600 mg), n = 6
  AE leading to treatment modification/interruption: Atezolizumab: 1 (17) n (%)
[4]; Part 2 TNBC Arm C, n = 5, post run-in
  AE leading to treatment modification/interruption: Atezolizumab: 1 (20) n (%)
[4]; [7]
  AE leading to treatment modification/interruption: Atezolizumab: 0 n (%)
[4]; Part 2 ovarian cancer Arms A + B, n = 14, post run-in
  AE leading to treatment modification/interruption: Atezolizumab: 5 (36) n (%)
[4]; [8]
  AE leading to treatment modification/interruption: Atezolizumab: 0 n (%)
[6]; Cycle 1 arithmetic mean (CV), sparse PK sampling, Part 1 Cohort 1, n = 3
  Atezolizumab Cmin: (n = 3) 84.3 (32.0) μg/mL
[6]; Cycle 1 arithmetic mean (CV), sparse PK sampling, Part 1 Cohort 2, n = 5
  Atezolizumab Cmin: (n = 5) 96.0 (23.8) μg/mL
[6]; Cycle 1 arithmetic mean (CV), sparse PK sampling, Part 2 TNBC Arm C, n = 4
  Atezolizumab Cmin: (n = 4) 98.7 (26.3) μg/mL
[6]; Cycle 1 arithmetic mean (CV), sparse PK sampling, Part 2 ovarian cancer Arm A (tBRCAmut), n = 10
  Atezolizumab Cmin: (n = 10) 77.2 (22.1) μg/mL
[6]; [9]
  Atezolizumab Cmax: (n = 4) 438 (9.4) μg/mL
  Atezolizumab Cmin: (n = 4) 95.7 (17.9) μg/mL
[6]; all trough concentrations exceeded the target concentration for maximal receptor occupancy
  Trough concentrations (Ctrough): > 6000 ng/mL
[6]; atezolizumab
  Inter-patient variability, Cmax: 7.0–35.3%
  Inter-patient variability, Cmin: 17.9–32.0%
